Counter-ions that a name gives are not always drawn.
Experiment: Stability test in solution (pH 1.2 and pH 6.5)
Format: physicochemical
Details: 1 hour; for Compound's percent residue (%) pH 6.5: 20 mM phosphate buffer pH 6.5, 37° C.; for Compound's percent residue (%) pH 1.2: hydrochloric acid solution pH 1.2, 37° C.
Method: Test 2: Stability Test in Solution
A test to determine the stability of Inventive Compounds (I-A) or (I) in a hydrochloric acid solution (pH 1.2) and 20 mM phosphate buffer (pH 6.5) was conducted in accordance with the following method.
A compound was dissolved in a hydrochloric acid solution (pH 1.2) containing hydrochloric acid and sodium chloride or a 20 mM phosphate buffer (pH 6.5) containing disodium hydrogenphosphate, sodium dihydrogenphosphate and sodium chloride to prepare a solution with a concentration of about 50 ng/mL (near the saturated concentration when the compound was not dissolved). The solution was incubated at 37° C. for 1 hour and the compound's concentration before and after the incubation was quantified by high-performance liquid chromatography to calculate the percent residue of the compound. Compounds having low solubility were assessed as being not applicable.
The percent residues of representative compounds in the hydrochloric acid solution (pH 1.2) and the 20 mM phosphate buffer (pH 6.5) are shown in the following Table 2.

Compound	Compound's percent residue (%) pH 6.5 [%]	Compound's percent residue (%) pH 1.2 [%]
CC(C)[C@H](N)C(=O)OCOC(=O)[C@@]1(N)[C@H]2[C@@H](C[C@H]1OCc1ccc(F)cc1)[C@]2(F)C(=O)O [Example 6, (1R,2R,3R,5R,6R)-2-Amino-6-fluoro-3-[(4-fluorophenyl)methoxy]-2-{[(L-valyloxy)methoxy]carbonyl}bicyclo[3.1.0]hexane-6-carboxylic acid dihydrochloride]	11	99
CC(C)[C@@H]1CC[C@@H](C)C[C@H]1OC(=O)O[C@H](C)OC(=O)[C@@]1(N)[C@H]2[C@@H](C[C@H]1OCc1ccc(F)c(F)c1)[C@]2(F)C(=O)O [Example 8, (1R,2R,3R,5R,6R)-2-amino-3-[(3,4-difluorophenyl)methoxy]-6-fluoro-2-({(1R)-1-[({[(1R,2S,5R)-5-methyl-2-(propan-2-yl)cyclohexyl]oxy}carbonyl)oxy]ethoxy}carbonyl)bicyclo[3.1.0]hexane-6-carboxylic acid]	–	97
C[C@H](OC(=O)C12CC3CC(CC(C3)C1)C2)OC(=O)[C@@]1(N)[C@H]2[C@@H](C[C@H]1OCc1ccc(F)c(F)c1)[C@]2(F)C(=O)O [Example 10, (1R,2R,3R,5R,6R)-2-Amino-3-[(3,4-difluorophenyl)methoxy]-6-fluoro-2-({(1R)-1-[(tricyclo[3.3.1.1^3,7]decane-1-carbonyl)oxy]ethoxy}carbonyl)bicyclo[3.1.0]hexane-6-carboxylic acid]	107	104
CC(C)(C)C(=O)OCOC(=O)[C@@]1(N)[C@H]2[C@@H](C[C@H]1OCc1ccc(F)cc1)[C@]2(F)C(=O)O [Example 35, (1R,2R,3R,5R,6R)-2-amino-2-({[(2,2-dimethylpropanoyl)oxy]methoxy}carbonyl)-6-fluoro-3-[(4-fluorophenyl)methoxy]bicyclo[3.1.0]hexane-6-carboxylic acid]	97	100
C[C@@H](OC(=O)C12CC3CC(CC(C3)C1)C2)OC(=O)[C@@]1(N)[C@H]2[C@@H](C[C@H]1OCc1ccc(C(F)(F)F)cc1)[C@]2(F)C(=O)O [Example 22, (1R,2R,3R,5R,6R)-2-amino-6-fluoro-2-({(1S)-1-[(tricyclo[3.3.1.1^3,7]decane-1-carbonyl)oxy]ethoxy}carbonyl)-3-{[4-(trifluoromethyl)phenyl]methoxy}bicyclo[3.1.0]hexane-6-carboxylic acid]	94	96
CC(OC(=O)OC1CCCCC1)OC(=O)[C@@]1(N)[C@H]2[C@@H](C[C@H]1OCc1ccc(F)cc1)[C@]2(F)C(=O)O (stereo partly drawn) [Example 5, (1R,2R,3R,5R,6R)-2-Amino-2-[(1-{[(cyclohexyloxy)carbonyl]oxy}ethoxy)carbonyl]-6-fluoro-3-[(4-fluorophenyl)methoxy]bicyclo[3.1.0]hexane-6-carboxylic acid]	98	100
CCCO[C@@H]1C[C@@H]2[C@H]([C@]1(N)C(=O)O[C@@H](C)OC(=O)O[C@@H]1C[C@H](C)CC[C@H]1C(C)C)[C@@]2(F)C(=O)O [Example 13, (1R,2R,3R,5R,6R)-2-amino-6-fluoro-2-({(1R)-1-[({[(1R,2S,5R)-5-methyl-2-(propan-2-yl)cyclohexyl]oxy}carbonyl)oxy]ethoxy}carbonyl)-3-propoxybicyclo[3.1.0]hexane-6-carboxylic acid]	98	98
CC(OC(=O)O[C@H]1C[C@H]2CC[C@]1(C)C2(C)C)OC(=O)[C@@]1(N)[C@H]2[C@@H](C[C@H]1OCc1ccc(F)cc1)[C@]2(F)C(=O)O (single isomer, unassigned) [Example 19-B]	106	100
CCCO[C@@H]1C[C@@H]2[C@H]([C@]1(N)C(=O)OC(C)OC(=O)O[C@H]1C[C@@H](C)CC[C@@H]1C(C)C)[C@@]2(F)C(=O)O (stereo partly drawn) [Example 15-A, (1R,2R,3R,5R,6R)-2-Amino-6-fluoro-2-({1-[({[(1S,2R,5S)-5-methyl-2-(propan-2-yl)cyclohexyl]oxy}carbonyl)oxy]ethoxy}carbonyl)-3-propoxybicyclo[3.1.0]hexane-6-carboxylic acid]	104	104
C[C@@H](OC(=O)C12CC3CC(CC(C3)C1)C2)OC(=O)[C@@]1(N)[C@H]2[C@@H](C[C@H]1OCc1ccc(F)cc1)[C@@H]2C(=O)O [Example 38, (1S,2R,3R,5R,6S)-2-amino-3-[(4-fluorophenyl)methoxy]-2-({(1S)-1-[(tricyclo[3.3.1.1^3,7]decane-1-carbonyl)oxy]ethoxy}carbonyl)bicyclo[3.1.0]hexane-6-carboxylic acid]	94	97
C[C@@H](OC(=O)C12CC3CC(CC(C3)C1)C2)OC(=O)[C@@]1(N)[C@H]2[C@@H](C[C@H]1OCc1cccc(Cl)n1)[C@]2(F)C(=O)O [Example 24, (1R,2R,3R,5R,6R)-2-amino-3-[(6-chloropyridin-2-yl)methoxy]-6-fluoro-2-({(1S)-1-[(tricyclo[3.3.1.1^3,7]decane-1-carbonyl)oxy]ethoxy}carbonyl)bicyclo[3.1.0]hexane-6-carboxylic acid]	96	95
C[C@@H](OC(=O)C12CC3CC(CC(C3)C1)C2)OC(=O)[C@@]1(N)[C@H]2[C@@H](C[C@H]1OCc1ccc(F)c(F)c1)[C@]2(F)C(=O)O [Example 11, (1R,2R,3R,5R,6R)-2-Amino-3-[(3,4-difluorophenyl)methoxy]-6-fluoro-2-({(1S)-1-[(tricyclo[3.3.1.1^3,7]decane-1-carbonyl)oxy]ethoxy}carbonyl)bicyclo[3.1.0]hexane-6-carboxylic acid]	95	96
C[C@H](OC(=O)C12CC3CC(CC(C3)C1)C2)OC(=O)[C@@]1(N)[C@H]2[C@@H](C[C@H]1OCc1ccc(F)cc1)[C@]2(F)C(=O)O [Example 3, (1R,2R,3R,5R,6R)-2-Amino-6-fluoro-3-[(4-fluorophenyl)methoxy]-2-({(1R)-1-[(tricyclo[3.3.1.1^3,7]decane-1-carbonyl)oxy]ethoxy}carbonyl)bicyclo[3.1.0]hexane-6-carboxylic acid]	–	93
N[C@]1(C(=O)OCOC(=O)C23CC4CC(CC(C4)C2)C3)[C@H]2[C@@H](C[C@H]1OCc1ccc(F)c(F)c1)[C@]2(F)C(=O)O [Example 12, (1R,2R,3R,5R,6R)-2-Amino-3-[(3,4-difluorophenyl)methoxy]-6-fluoro-2-({[(tricyclo[3.3.1.1^3,7]decane-1-carbonyl)oxy]methoxy}carbonyl)bicyclo[3.1.0]hexane-6-carboxylic acid]	102	101
CC(C)[C@@H]1CC[C@@H](C)C[C@H]1OC(=O)O[C@H](C)OC(=O)[C@@]1(N)[C@H]2[C@@H](C[C@H]1OCc1cccc(Cl)n1)[C@]2(F)C(=O)O [Example 33, (1R,2R,3R,5R,6R)-2-amino-3-[(6-chloropyridin-2-yl)methoxy]-6-fluoro-2-({(1R)-1-[({[(1R,2S,5R)-5-methyl-2-(propan-2-yl)cyclohexyl]oxy}carbonyl)oxy]ethoxy}carbonyl)bicyclo[3.1.0]hexane-6-carboxylic acid]	97	96
CC(C)[C@@H]1CC[C@@H](C)C[C@H]1OC(=O)O[C@@H](C)OC(=O)[C@@]1(N)[C@H]2[C@@H](C[C@H]1OCc1ccc(F)c(F)c1)[C@]2(F)C(=O)O [Example 9, (1R,2R,3R,5R,6R)-2-Amino-3-[(3,4-difluorophenyl)methoxy]-6-fluoro-2-({(1S)-1-[({[(1R,2S,5R)-5-methyl-2-(propan-2-yl)cyclohexyl]oxy}carbonyl)oxy]ethoxy}carbonyl)bicyclo[3.1.0]hexane-6-carboxylic acid]	116	115
CC(OC(=O)O[C@H]1C[C@@H](C)CC[C@@H]1C(C)C)OC(=O)[C@@]1(N)[C@H]2[C@@H](C[C@H]1OCc1ccc(F)cc1)[C@]2(F)C(=O)O (stereo partly drawn) [Example 16-B, (1R,2R,3R,5R,6R)-2-Amino-6-fluoro-3-[(4-fluorophenyl)methoxy]-2-({1-[({[(1S,2R,5S)-5-methyl-2-(propan-2-yl)cyclohexyl]oxy}carbonyl)oxy]ethoxy}carbonyl)bicyclo[3.1.0]hexane-6-carboxylic acid]	93	101
N[C@]1(C(=O)OCOC(=O)C2CCCCC2)[C@H]2[C@@H](C[C@H]1OCc1ccc(F)cc1)[C@]2(F)C(=O)O [Example 37, (1R,2R,3R,5R,6R)-2-amino-2-({[(cyclohexanecarbonyl)oxy]methoxy}carbonyl)-6-fluoro-3-[(4-fluorophenyl)methoxy]bicyclo[3.1.0]hexane-6-carboxylic acid]	96	102

— patent US10689327B2, “Prodrug amino acid derivative” (TAISHO PHARMACEUTICALS CO., LTD., priority 2016, dated 2020)
